Experimental data as given in paper PMC5515844, “A new Prenylated Flavonoid induces G0/G1 arrest and apoptosis through p38/JNK MAPK pathways in Human Hepatocellular Carcinoma cells” (Scientific Reports, 2017).

How the values were obtained:
[1] = Gross evaluation and pathological study in xenograft nude mice; type: in vivo, BALB/c nude mice
Experimental: All of the animal studies and procedures were conducted in accordance with the approval and guidelines of the Shenyang Pharmaceutical University Institutional Animal Care and Use Committee (permission number: SCXK (Jing) 2014-0004). Male BALB/c nude mice at the age of six weeks were obtained from Beijing HFK Bioscience Co., Ltd (Beijing, China). Hep3B cells (1 × 10^5 cells) were implanted subcutaneously into the right backsides of each nude mouse. After 12 days, when the tumor size reached about 100 mm^3, the mice were randomly divided into three groups (n = 6) and intraperitoneally injected with vehicle control or daphnegiravone D (5 and 10 mg/kg body weight) every two days for two weeks. The body weight and tumor sizes were measured every day, and the tumor volume was determined by caliper measurements and calculated by the formula: 0.5236 × L × W ^2, where L is the long axis and W is the short axis of the tumor. The experiment was terminated when the tumors volume of the control group reached about 3000 mm^3. The mice were sacrificed, and the tumors, hearts, livers, spleens, lungs and kidneys were excised immediately to evaluate the antitumor activity and toxicity of daphnegiravone D.
Mouse major organs (heart, liver, spleen, lung, kidney) and tumors were isolated and fixed in 10% buffered formalin for 3 days and embedded in paraffin. […]

[2] = tested on: cyclin D1, cyclin E1, CDK2, CDK4, cleaved-caspase 3, PARP, p38, JNK, ERK in HepG2 cells; test: Western blotting analysis; type: cell-based, human
Experimental: (§1) Cells that after treatment were harvested and lysed by radio-immunoprecipitation assay (RIPA) buffer containing protease inhibitor (PMSF, 1 mM) on ice for 30 min. Cells lysates were centrifuged at 12,000 g for 15 min at 4 °C and following the protein concentration in the supernatant was determined using a BCA protein assay kit (Thermo Scientific, Waltham, USA), then cell extracts were added SDS-PAGE sample loading buffer and denatured at 100 °C for 10 min. Equal amount of protein (30 μg) were separated on a 8–15% SDS-PAGE and transferred onto PVDF membranes (0.2 μm, Millipore) using an electroblotting apparatus (Bio-Rad). The membranes were blocked with 5% milk in PBS-T (PBS containing 0.1% Tween 20) for 2 h at room temperature and incubated with primary antibodies at 4 °C overnight. After washed three times with PBS-T, the membranes were incubated with horseradish peroxi-dase (HRP)-conjugated secondary antibody (1:5,000) at room temperature for 2 h, then washed again, and the immunoreactive bands were detected using ECL reagents (ThermoFisher, Waltham, MA).

[3] = tested on: cyclin D1, cyclin E1, CDK2, CDK4, cleaved-caspase 3, PARP, p38, JNK, ERK in Hep3B cells; test: Western blotting analysis; type: cell-based, human
Experimental: as §1

HepG2 = test: MTT cytotoxicity assay; type: cell-based, human; details: Homo sapiens, HepG2; MTT, 48 h, mean ± SD
Experimental: (§2) HepG2 and Hep3B (human hepatoma cells), Bcap37 and MCF-7 (human breast cancer cells), TE-1 (human esophageal cancer cells), A549 (human lung carcinoma cells), U251 and U87 (human glioma cells), were cultured in Dulbecco’s modified Eagle’s medium (DMEM) supplemented with 10% fetal bovine serum (FBS) and 1% penicillin/streptomycin (10000 U/mL penicillin, 10000 μg/ml streptomycin). SH-SY5Y (human neuroblastoma cells), LO2 (human normal liver cell) were grown in RPMI 1640 containing 10% FBS and 100 µg/ml penicillin, 100 µg/ml streptomycin. HepG2, Hep3B, MCF-7, TE-1, A549, U87, U251 and SHSY5Y cells were obtained from the American Type Culture Collection (Manassas, VA, USA). Bcap37 and LO2 cells were purchased from the Cell Bank of Chinese Academy of Sciences (Shanghai, China). All cells were incubated in a humidified atmosphere containing 5% CO2 at 37 °C.
(§3) Cells seeded in 96-well plates with 5 × 10^3 cells/well were adhered overnight and incubated with vehicle control (DMSO) or diverse concentrations of compounds for 48 h. After treatment, 20 μL of MTT (5 mg/mL) was added to each well and incubated for another 4 h at 37 °C. Then, 150 μL of DMSO/well was appended after removed the supernatant to dissolve the formed purple formazan crystals and the color absorbance was measured at 490 nm using a microplate reader (Molecular Devices, Thermo, CA, USA). The inhibition rate (%) was calculated as (A490(control) − A490(drug groups))/(A490(control) − A490(blank)) × 100 and the value of IC50 (the concentration that caused 50% inhibition of cell viability) was determined using SPSS 20.0. This experiment was measured in triplicate, independently.

Hep3B = test: MTT cytotoxicity assay; type: cell-based, human; details: Homo sapiens, 48 h, mean ± SD
Experimental: as §2, §3

Hep3B cells = test: Annexin V-FITC/PI apoptosis detection; type: cell-based, human; details: 0.5–2.0 μM, 48 h, dose-dependent
Experimental: (§4) An annexin-V FITC apoptosis detection Kit was used to determine the apoptosis effect induced by daphnegiravone D according to the manufacturer’s instructions (BD Biosciences, CA, USA). Briefly, Hep3B and HepG2 cells were plated in 6-well plates (2 × 10^5/well) and incubated overnight. Cells were harvested and washed with PBS by centrifugation after treatment with different concentrations of daphnegiravone D for 48 h. Then, cells were resuspended in 500 μL binding buffer and staining with Annexin V-FITC (10 μL) and propidium iodide (5 μL) at room temperature in the dark for 10 min. Thereafter, cells were analyzed by flow cytometry within 1 h after staining. 10,000 cells were acquired for each sample and data were analyzed by Cell Quest Pro software (BD Biosciences, New Jersey, USA).

HepG2 cells = test: Annexin V-FITC/PI apoptosis detection; type: cell-based, human; details: HepG2, 2.5–10.0 μM, 48 h, dose-dependent
Experimental: as §4

COc1c(-c2ccc(O)c(CC=C(C)C)c2)oc2c(CC=C(C)C)c(O)cc(O)c2c1=O [Compound 1, daphnegiravone D]
histopathology of heart, liver, spleen, lungs and kidneys ([1]; 5 mg/kg and 10 mg/kg, H&E, vs vehicle control group): no obvious differences
body weight of the mice ([1]; 5 and 10 mg/kg i.p. every two days for two weeks): did not affect the body weight
expression of cyclin D1 ([2]; HepG2): not significantly changed
phosphorylated status of ERK ([2]; HepG2): no distinct change
phosphorylation level of p38 ([2]; HepG2, 48 h): markedly increased
levels of cleaved-caspase 3 and -PARP ([2]; HepG2, 48 h, dose-dependent): increased
level of phosphorylated JNK ([2]; HepG2, dose-dependent): dramatically reduced
levels of cyclin E1, CDK2 and CDK4 ([2]; HepG2, dose-dependent): decreased
expression of cyclin D1 [3]: not significantly changed
phosphorylated status of ERK [3]: no distinct change
phosphorylation level of p38 ([3]; 48 h): markedly increased
levels of cleaved-caspase 3 and -PARP ([3]; 48 h, dose-dependent): increased
level of phosphorylated JNK ([3]; dose-dependent): dramatically reduced
levels of cyclin E1, CDK2 and CDK4 ([3]; dose-dependent): decreased
IC50 (HepG2): 9.89 ± 1.02 µM
IC50 (Hep3B): 1.63 ± 0.56 µM
AV+PI− and AV+PI+ cells (apoptosis) (Hep3B cells): increased dramatically
AV+PI− and AV+PI+ cells (apoptosis) (HepG2 cells): increased dramatically
